pIC50: −log10 of the molar value. Values after ≈ are worked out from the molar mass of the structure shown. “Also recorded” adds a separate entry of the source. Read-outs that look alike come from different tables or passages of the source.
Tests used:
[1] = test system: Myocobacterium tuberculosis H37Rv, Mycobacterium avium 2285, Mycobacterium smegmatis (ATCC607); test: Antimycobacterial activity; assay type: cell-based, Mycobacterium spp.
[2] = test system: cancer and healthy cell lines; test: Cytotoxicity across cell-line panel; assay type: cell-based
[3] = cited from earlier work
[4] = test system: DPAGT1; settings: cited from earlier work
[5] = test system: normal cells / cancer cells; settings: selected solid cancer cell lines; ref [10]; cited from earlier work
[6] = test system: HPNE; test: MTT cytotoxicity assay, HPNE; assay type: cell-based; settings: read-out: IC50 HPNE
[7] = test system: MraY, WecA, AglH, and DPAGT1; test: Phosphotransferase panel; assay type: biochemical; settings: at 50 μM concentration
[8] = target: DPAGT1 (Human) (Homo sapiens, UniProt Q9H3H5); test: DPAGT1 assay; assay type: biochemical
[9] = test system: PD002; test: Kinetic proliferation assay; assay type: cell-based, human
[10] = test system: PD002; test: Scratch; assay type: cell-based, human; settings: PD002, 24h, 0.2 μM; untreated 63%
[11] = test system: HCT-116; test: Scratch; assay type: cell-based; settings: scratch assay
[12] = test system: SiHa; test: Scratch; assay type: cell-based, human; settings: scratch assay, 0.2 μM
[13] = test system: PD002; test: Cell migration assay using transwell; assay type: cell-based, human; settings: 0.1 μM, 18h; vs tunicamycin and gemcitabine at 0.1 μM
[14] = test system: Snail; test: Snail expression; assay type: cell-based; settings: 0.05 and 2.0 μM
[15] = test system: E-Cadherin; test: E-Cadherin expression; assay type: cell-based
[16] = test system: DPAGT1; test: DPAGT1 protein expression; assay type: cell-based
[17] = test system: PD002; test: Checkerboard synergy of CPPB with paclitaxel; assay type: cell-based, human; settings: for CA and CB, concentration in combination: growth–no growth interface
[18] = test system: MraY/MurX; settings: cited from earlier work
[19] = test system: PD002; test: MTT cytotoxicity assay, PD002; assay type: cell-based, human; settings: read-out: IC50 PD002
[20] = target: MraY (Hydrogenivirga sp.) (Hydrogenivirga sp. 128-5-R1-1, UniProt Z9Y2G8N0L0); test: MraY assay; assay type: biochemical; settings: read-out: IC50 MraY (Hydrogenivirga sp.)
[21] = target: AglH (M. jannaschii) (Methanocaldococcus jannaschii, UniProt Q58513); test: AglH assay; assay type: biochemical; settings: read-out: IC50 AglH (M. jannaschii)
[22] = test system: L1210; test: MTT cytotoxicity assay, L1210; assay type: cell-based, mouse; settings: read-out: IC50 L1210, 72h
[23] = test system: KB; test: MTT cytotoxicity assay, KB; assay type: cell-based, human; settings: read-out: IC50 KB, 72h
[24] = test system: SiHa; test: MTT cytotoxicity assay, SiHa; assay type: cell-based, human; settings: read-out: IC50 SiHa, 72h
[25] = test system: HCT-116; test: MTT cytotoxicity assay, HCT-116; assay type: cell-based; settings: read-out: IC50 HCT-116, 72h
[26] = test system: DLD-1; test: MTT cytotoxicity assay, DLD-1; assay type: cell-based; settings: read-out: IC50 DLD-1, 72h
[27] = test system: Capan-1; test: MTT cytotoxicity assay, Capan-1; assay type: cell-based, human; settings: read-out: IC50 Capan-1, 72h
[28] = test system: PANC-1; test: MTT cytotoxicity assay, PANC-1; assay type: cell-based, human; settings: read-out: IC50 PANC-1, 72h
[29] = test system: AsPC-1; test: MTT cytotoxicity assay, AsPC-1; assay type: cell-based, human; settings: read-out: IC50 AsPC-1, 72h
[30] = test system: Vero; test: MTT cytotoxicity assay, Vero; assay type: cell-based, Cercopithecus aethiops; settings: read-out: IC50 Vero, 72h, normal kidney cell
[31] = test system: DPAGT1 gene; test: RT-qPCR of DPAGT1 gene expression in PD002; assay type: cell-based, human; settings: 10 μM, 24h at 37 °C
[32] = test system: WecA; settings: read-out: IC50 WecA; ref [9],[10]; cited from earlier work
[33] = target: WecA (E. coli) (Escherichia coli, UniProt P0AC78); test: WecA assay; settings: read-out: IC50 WecA (E. coli)
Chain of WecA (E. coli) (P0AC78 whole entry): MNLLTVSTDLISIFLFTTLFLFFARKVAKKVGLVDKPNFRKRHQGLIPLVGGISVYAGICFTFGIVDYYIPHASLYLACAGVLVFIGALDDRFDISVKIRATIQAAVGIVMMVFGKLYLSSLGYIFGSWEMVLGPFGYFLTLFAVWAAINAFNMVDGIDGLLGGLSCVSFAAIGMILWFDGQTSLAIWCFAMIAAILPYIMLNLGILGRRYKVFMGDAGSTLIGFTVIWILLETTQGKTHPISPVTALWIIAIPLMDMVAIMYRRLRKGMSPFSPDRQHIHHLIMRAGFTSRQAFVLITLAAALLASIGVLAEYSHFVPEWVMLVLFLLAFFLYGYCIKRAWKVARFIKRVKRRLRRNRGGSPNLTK

Chain of DPAGT1 (Human) (Q9H3H5 whole entry): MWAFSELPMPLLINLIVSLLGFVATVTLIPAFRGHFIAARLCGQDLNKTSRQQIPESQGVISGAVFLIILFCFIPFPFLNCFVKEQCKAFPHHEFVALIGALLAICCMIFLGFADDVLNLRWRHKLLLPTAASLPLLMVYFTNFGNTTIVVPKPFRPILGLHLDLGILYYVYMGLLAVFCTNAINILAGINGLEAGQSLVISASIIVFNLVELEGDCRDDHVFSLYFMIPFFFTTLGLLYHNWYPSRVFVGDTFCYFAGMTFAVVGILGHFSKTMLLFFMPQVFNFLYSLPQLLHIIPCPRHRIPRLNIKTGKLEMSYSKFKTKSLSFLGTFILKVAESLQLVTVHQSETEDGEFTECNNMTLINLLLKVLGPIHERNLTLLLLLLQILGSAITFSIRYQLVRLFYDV
Chain of MraY (Hydrogenivirga sp.) (Z9Y2G8N0L0 7-365 limits assumed): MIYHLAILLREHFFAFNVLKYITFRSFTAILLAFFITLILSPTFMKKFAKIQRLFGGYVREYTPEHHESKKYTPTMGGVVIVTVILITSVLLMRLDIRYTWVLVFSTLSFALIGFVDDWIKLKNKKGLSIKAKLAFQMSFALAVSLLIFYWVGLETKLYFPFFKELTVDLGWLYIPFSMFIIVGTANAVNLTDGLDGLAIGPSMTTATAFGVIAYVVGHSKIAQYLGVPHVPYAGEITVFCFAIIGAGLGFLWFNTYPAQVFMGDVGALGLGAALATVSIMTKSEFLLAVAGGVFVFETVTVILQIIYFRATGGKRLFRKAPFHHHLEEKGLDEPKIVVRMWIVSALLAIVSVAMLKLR
Chain of AglH (M. jannaschii) (Q58513 whole entry): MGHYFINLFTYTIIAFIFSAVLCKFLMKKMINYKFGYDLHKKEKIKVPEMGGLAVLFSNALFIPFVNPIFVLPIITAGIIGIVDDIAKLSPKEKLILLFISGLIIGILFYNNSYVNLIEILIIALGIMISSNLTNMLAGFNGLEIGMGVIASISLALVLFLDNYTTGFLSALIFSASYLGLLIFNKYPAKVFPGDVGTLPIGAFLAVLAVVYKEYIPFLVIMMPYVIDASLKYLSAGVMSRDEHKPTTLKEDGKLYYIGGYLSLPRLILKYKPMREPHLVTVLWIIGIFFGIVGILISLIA

CO[C@@H]1[C@H](O)[C@@H]([C@@H](O[C@H]2OC(C(=O)NCc3ccc(N4CCC(Oc5ccc(OC(F)(F)F)cc5)CC4)cc3)=C[C@H](O)[C@@H]2O)C(N)=O)O[C@H]1n1ccc(=O)[nH]c1=O
growth inhibitory activity against Mycobacterium spp. ([1]; at 50 μg/mL): did not show growth inhibitory activity | antiproliferative activity against L1210, HPNE, and Vero ([2]; at 50 μM): did not show antiproliferative activity

NC[C@H]1O[C@@H](O[C@H]([C@H]2O[C@@H](n3ccc(=O)[nH]c3=O)[C@H](O)[C@@H]2O)[C@H](NCCCC(=O)NCc2ccc(N3CCC(Oc4ccc(OC(F)(F)F)cc4)CC3)cc2)C(N)=O)[C@H](O)[C@@H]1O [APPB, Aminouridyl phenoxylpiperidinylbenzylbutanamide]
LD50 ([3]; mouse, ref [10],[18]): > 20 mg/kg | DPAGT1 inhibitory activity relative to tunicamycin ([4]; ref [10]): greater than 30 times | selective cytotoxicity (IC50 normal cells / cancer cells) [5]: > 35

CO[C@H]1[C@@H](O)[C@H](n2ccc(=O)[nH]c2=O)O[C@@H]1[C@@H](O[C@H]1OC(C(=O)N[C@H]2CCCCNC2=O)=C[C@H](O)[C@@H]1O)C(N)=O [CAP, Capuramycin, reference compound]
pIC50 ([6]; HPNE, 72 h): < 4.30

CO[C@H]1[C@@H](O)[C@H](n2ccc(=O)[nH]c2=O)O[C@@H]1[C@@H](O[C@H]1OC(CNCc2ccc(N3CCC(Oc4ccc(OC(F)(F)F)cc4)CC3)cc2)=C[C@H](O)[C@@H]1O)C(N)=O [CPPA, (2R)-2-(((2S,3S,4S)-3,4-Dihydroxy-6-(((4-(4-(4-(trifluoromethoxy)phenoxy)piperidin-1-yl)benzyl)amino)methyl)-3,4-dihydro-2H-pyran-2-yl)oxy)-2-((2S,5R)-5-(2,4-dioxo-3,4-dihydropyrimidin-1(2H)-yl)-4-hydroxy-3-methoxytetrahydrofuran-2-yl)acetamide]
inhibition of all phosphotransferases tested in Table 1 [7]: did not inhibit

CO[C@H]1[C@@H](O)[C@H](n2ccc(=O)[nH]c2=O)O[C@@H]1[C@@H](O[C@H]1OC(C(=O)NCc2ccc(N3CCC(Oc4ccc(OC(F)(F)F)cc4)CC3)cc2)=C[C@H](O)[C@@H]1O)C(N)=O [CPPB, (2S,3S,4S)-2-((1R)-2-Amino-1-((2S,5R)-5-(2,4-dioxo-3,4-dihydropyrimidin-1(2H)-yl)-4-hydroxy-3-methoxytetrahydrofuran-2-yl)-2-oxoethoxy)-3,4-dihydroxy-N-(4-(4-(4-(trifluoromethoxy)phenoxy)piperidin-1-yl)benzyl)-3,4-dihydro-2H-pyran-6-carboxamide]
DPAGT1 inhibitory activity relative to tunicamycin [8]: ~ 7.5 times | pIC50 ([6]; HPNE, 72 h): < 4.30 | MIC [1]: 6.25 to 12.5 µg/mL (≈ 7.74 to 15.5 µM) | phase area confluent of PD002 culture after 72h ([9]; CPPB 50 μM, same as time 0h, control (PBS) ca. 70%): 10–13% | cell proliferation inhibited at time 72h ([9]; PD002, CPPB 0.2–20 μM): ca. 20% | cell permeability ([9]; demonstrated by IncuCyte live cell analyses and immunofluorescence assays): cell-permeable | wound-healing rate [10]: approximately 20% | inhibition of cell migration of HCT-116 [11]: not inhibited; also recorded: did not inhibit migration | inhibition of migration of SiHa [12]: strongly inhibited migration | inhibition of cell migration of PD002 (Boyden chamber) [13]: inhibited on a higher level | Snail expression level in HCT-116 [14]: not noticeably changed | E-Cadherin expression level of PANC-1 ([15]; Western blot, 0–2.0 μM): the same expression level | E-Cadherin expression levels of PD002, PANC-1, and HCT-116 ([15]; immunofluorescence, 0.05–2.0 μM): not changed significantly | DPAGT1 expression in pancreatic cancer cell lines ([16]; 0.2 μM): apparently inhibited | DPAGT1 expression levels of HCT-116 remaining ([16]; Western blot, CPPB 0.1–20 μM): 20–90% | CA and CB, concentration in combination ([17]; Table 3 entry 1): 0.10 µM | CA and CB, concentration in combination ([17]; Table 3 entry 2): 0.10 µM | CA and CB, concentration in combination ([17]; Table 3 entry 3): 0.20 µM | CA and CB, concentration in combination ([17]; Table 3 entry 4): 0.20 µM | CA and CB, concentration in combination ([17]; Table 3 entry 5): 0.20 µM | CA and CB, concentration in combination ([17]; Table 3 entry 6): 2.0 µM | CA and CB, concentration in combination ([17]; Table 3 entry 7): 2.0 µM | CA and CB, concentration in combination ([17]; Table 3 entry 8): 2.0 µM | synergistic effect with paclitaxel against PD002 ([17]; checkerboard): strong synergistic effects | viability of all pancreatic cancers tested ([2]; MTT assays, 20 μM): remained viable | cytotoxicity against a series of cancer and healthy cell lines ([2]; at 10 μM or higher concentrations): not cytotoxic | antiproliferative activity against L1210, HPNE, and Vero ([2]; at 50 μM): did not show antiproliferative activity | pIC50 ([2]; read-out: IC50 growth inhibition of solid cancer cell lines (span)): 4.35 to 4.82

CO[C@@H]1[C@H](O)[C@@H]([C@@H](O[C@H]2OC(CNCc3ccc(N4CCC(Oc5ccc(OC(F)(F)F)cc5)CC4)cc3)=C[C@H](O)[C@@H]2O)C(N)=O)O[C@H]1n1ccc(=O)[nH]c1=O [I-CPPA, (2R)-2-(((2S,3S,4S)-3,4-Dihydroxy-6-(((4-(4-(4-(trifluoromethoxy)phenoxy)piperidin-1-yl)benzyl)amino)methyl)-3,4-dihydro-2H-pyran-2-yl)oxy)-2-((2S,5R)-5-(2,4-dioxo-3,4-dihydropyrimidin-1(2H)-yl)-3-hydroxy-4-methoxytetrahydrofuran-2-yl)acetamide]
inhibition of all phosphotransferases tested in Table 1 [7]: did not inhibit

CO[C@H]1[C@@H](OC)[C@H](n2ccc(=O)[nH]c2=O)O[C@@H]1[C@@H](O[C@H]1OC(C(=O)N[C@H]2CCCCNC2=O)=C[C@H](O)[C@@H]1O)C(N)=O [OM-CAP, O-Methyl capuramycin]
pIC50 ([6]; HPNE, 72 h): < 4.30 | cytotoxicity against healthy cells (e.g., Vero and HPNE cells) ([2]; at 50 μM): does not show cytotoxicity | pIC50 ([18]; read-out: IC50 MraY, previously identified, ref [9]): < 4.30

CC(=O)O[C@H]1C(=O)[C@@]2(C)[C@H]([C@H](OC(=O)c3ccccc3)[C@]3(O)C[C@H](OC(=O)[C@H](O)[C@@H](NC(=O)c4ccccc4)c4ccccc4)C(C)=C1C3(C)C)[C@]1(OC(C)=O)CO[C@@H]1C[C@@H]2O [Paclitaxel, reference compound]
pIC50 ([19]; Homo sapiens, PD002, 72 h): 5.90 | CA and CB, concentration in combination ([17]; Table 3 entry 1): 0.63 µM | CA and CB, concentration in combination ([17]; Table 3 entry 2): 0.16 µM | CA and CB, concentration in combination ([17]; Table 3 entry 3): 0.0049 µM | CA and CB, concentration in combination ([17]; Table 3 entry 4): 0.020 µM | CA and CB, concentration in combination ([17]; Table 3 entry 6): 0.020 µM

Tunicamycin
pIC50 [20]: 5.54 | pIC50 [21]: 4.88 | pIC50 ([8]; read-out: IC50 DPAGT1 (Human)): 5.82 | pIC50 [22]: 5.77 | pIC50 [23]: 5.60 | pIC50 [24]: 6.04 | pIC50 [25]: 6.04 | pIC50 [26]: 5.90 | pIC50 [27]: 5.82 | pIC50 [28]: 5.82 | pIC50 [29]: 6.35 | pIC50 ([19]; MTT assay, 72h): 5.82 | pIC50 ([6]; MTT assay, 72h, normal pancreatic ductal cell): 5.12 | pIC50 [30]: 6.11 | wound-healing rate [10]: 35% | PD002 killed [31]: 100% | LD50 ([3]; mice, IP, ref [18],[19]): 2.0 mg/kg | LD100 ([3]; mice, IP, ref [18],[19]): 3.5 mg/kg | LD50 ([3]; mouse, ref [10],[18]): 2.0 mg/kg | pIC50 ([18]; read-out: IC50 MraY/MurX, ref [9],[10]): 5.54 | pIC50 [32]: 6.82 | pIC50 ([4]; read-out: IC50 DPAGT1, ref [9],[10]): 5.82 | pIC50 [33]: 6.82

Reference: publication PMC7554145 (Journal of medicinal chemistry, 2020)
